Measurements published in US10711004B2 (Genentech, Inc., priority 2018, dated 2020).
Where two headings read alike, the source gives them in different places.

Target: human TRPA1 channel (Homo sapiens (Human), UniProt O75762)
Test: hTRPA1 CHO Ca2+ FLIPR Tetra assay, block of cinnamaldehyde induced calcium influx
Format: cell-based
Settings: CHO cells expressing TRPA1, Hill coefficient fixed to 1.5
Summary of the method: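 IC50 values come from fixed-Hill fits of inhibition of cinnamaldehyde-induced (about EC50 level) calcium influx measured by FLIPR Tetra. Before agonist, TRPA1-expressing CHO cells loaded with calcium indicator were exposed to compound for 10 or 90 min at room temperature in HEPES-buffered HBSS, pH 7.4, with 0.02% BSA.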

[1] = read-out: hTRPA1 IC50 (10 min), compounds incubated 10 minutes at room temperature before cinnamaldehyde agonist
[2] = read-out: hTRPA1 IC50 (90 min), compounds incubated 90 minutes at room temperature before cinnamaldehyde agonist

human TRPA1 channel, sequence (O75762 whole entry): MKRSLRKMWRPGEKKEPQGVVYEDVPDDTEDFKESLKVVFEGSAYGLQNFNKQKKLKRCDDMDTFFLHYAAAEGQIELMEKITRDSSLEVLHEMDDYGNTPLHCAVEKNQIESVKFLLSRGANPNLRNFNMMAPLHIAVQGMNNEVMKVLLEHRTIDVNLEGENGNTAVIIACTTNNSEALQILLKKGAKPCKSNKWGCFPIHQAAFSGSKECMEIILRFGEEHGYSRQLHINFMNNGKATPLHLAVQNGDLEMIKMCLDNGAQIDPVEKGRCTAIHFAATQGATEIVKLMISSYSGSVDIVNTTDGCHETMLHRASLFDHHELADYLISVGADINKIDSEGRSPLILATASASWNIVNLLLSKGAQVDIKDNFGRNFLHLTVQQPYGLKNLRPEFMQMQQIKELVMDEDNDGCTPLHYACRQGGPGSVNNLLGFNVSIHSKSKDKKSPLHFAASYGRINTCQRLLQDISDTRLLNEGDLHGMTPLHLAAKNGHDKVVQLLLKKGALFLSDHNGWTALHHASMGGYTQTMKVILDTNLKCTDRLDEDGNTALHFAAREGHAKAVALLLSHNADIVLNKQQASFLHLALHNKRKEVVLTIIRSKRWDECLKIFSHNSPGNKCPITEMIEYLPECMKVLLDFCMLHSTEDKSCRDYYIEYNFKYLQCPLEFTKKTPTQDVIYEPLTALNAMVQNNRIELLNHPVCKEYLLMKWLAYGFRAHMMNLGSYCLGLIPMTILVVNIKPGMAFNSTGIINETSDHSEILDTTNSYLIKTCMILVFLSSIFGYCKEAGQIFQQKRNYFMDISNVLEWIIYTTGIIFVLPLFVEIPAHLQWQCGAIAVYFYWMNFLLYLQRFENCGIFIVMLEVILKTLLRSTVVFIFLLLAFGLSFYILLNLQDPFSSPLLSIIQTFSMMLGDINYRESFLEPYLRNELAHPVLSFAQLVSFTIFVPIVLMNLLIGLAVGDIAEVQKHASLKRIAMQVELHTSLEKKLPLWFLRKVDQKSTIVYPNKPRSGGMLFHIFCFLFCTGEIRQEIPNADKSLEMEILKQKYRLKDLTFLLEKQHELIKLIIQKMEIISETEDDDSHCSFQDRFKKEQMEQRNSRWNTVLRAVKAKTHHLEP

Structure (SMILES)	IC50 [1] [nM]	IC50 [2] [nM]	also measured
Cn1cnc2ncn(Cc3nc([C@H]4[C@@H]5CN(c6cc(F)c(C#N)c(F)c6)C[C@@H]54)no3)c(=O)c21 [Example Compound 258, 2,6-difluoro-4-[(1S,5R)-6-[5-[(7-methyl-6-oxo-purin-1-yl)methyl]-1,2,4-oxadiazol-3-yl]-3-azabicyclo[3.1.0]hexan-3-yl]benzonitrile]	78.2	18	–
Cn1cnc2nnn(Cc3nc([C@H]4[C@@H]5C=C(c6ccccc6)C[C@@H]54)no3)c(=O)c21 [Example Compound 259, 5-methyl-3-[[3-[(1S,5S,6R)-3-phenyl-6-bicyclo[3.1.0]hex-2-enyl]-1,2,4-oxadiazol-5-yl]methyl]imidazo[4,5-d]triazin-4-one]	25.1	16	–
COCCNc1nc2ncn(Cc3nc([C@@H]4[C@H]5C=C(c6ccccc6)C[C@H]54)no3)c(=O)c2n1C [Example Compound 260, 8-(2-methoxyethylamino)-7-methyl-1-[[3-[(1R,5R,6S)-3-phenyl-6-bicyclo[3.1.0]hex-2-enyl]-1,2,4-oxadiazol-5-yl]methyl]purin-6-one]	42.6	35	–
CNc1nc2ncn(Cc3nc([C@@H]4[C@H]5C=C(c6ccccc6)C[C@H]54)no3)c(=O)c2n1C [Example Compound 262, 7-methyl-8-(methylamino)-1-[[3-[(1R,5R,6S)-3-phenyl-6-bicyclo[3.1.0]hex-2-enyl]-1,2,4-oxadiazol-5-yl]methyl]purin-6-one]	33.5	14	–
Cn1cnc2ncn(Cc3nc([C@@H]4[C@H]5C=C(c6ccc7c(cnn7C)c6)C[C@H]54)no3)c(=O)c21 [Example Compound 264, 7-methyl-1-[[3-[(1R,5R,6S)-3-(1-methylindazol-5-yl)-6-bicyclo[3.1.0]hex-2-enyl]-1,2,4-oxadiazol-5-yl]methyl]purin-6-one]	29	14	–
N#Cc1ccc2c(=O)n(Cc3nc([C@@H]4[C@H]5C=C(c6ccccc6)C[C@H]54)no3)cnc2n1 [Example Compound 266, 4-oxo-3-[[3-[(1R,5R,6S)-3-phenyl-6-bicyclo[3.1.0]hex-2-enyl]-1,2,4-oxadiazol-5-yl]methyl]pyrido[2,3-d]pyrimidine-7-carbonitrile]	54.6	39	–
Cn1cnc2ncn(Cc3nc([C@H]4[C@@H]5C=C(c6ccc7[nH]ncc7c6)C[C@@H]54)no3)c(=O)c21 [Example Compound 268, 7-methyl-1-[[3-[(1S,5S,6R)-3-(1H-indazol-5-yl)-6-bicyclo[3.1.0]hex-2-enyl]-1,2,4-oxadiazol-5-yl]methyl]purin-6-one]	20	12	–
Cn1cnc2ncn(Cc3nc([C@H]4[C@@H]5CN(c6cc(F)c(Cl)c(F)c6)C[C@@H]54)no3)c(=O)c21 [Example Compound 271, 7-methyl-1-[[3-[(1S,5R)-3-(4-chloro-3,5-difluoro-phenyl)-3-azabicyclo[3.1.0]hexan-6-yl]-1,2,4-oxadiazol-5-yl]methyl]purin-6-one]	34.7	11	–
O=c1c2ccc(Cl)nc2ncn1Cc1nc([C@H]2[C@@H]3CN(c4cccc(F)c4)C[C@@H]32)no1 [Example Compound 272, 7-chloro-3-[[3-[(1R,5S)-3-(3-fluorophenyl)-3-azabicyclo[3.1.0]hexan-6-yl]-1,2,4-oxadiazol-5-yl]methyl]pyrido[2,3-d]pyrimidin-4-one]	58.3	35	–
Cn1cnc2ncn(Cc3nc([C@@H]4[C@H]5C=C(c6ccc(-c7cnco7)cc6)C[C@H]54)no3)c(=O)c21 [Example Compound 277, 7-methyl-1-[[3-[(1R,5R,6S)-3-(4-oxazol-5-ylphenyl)-6-bicyclo[3.1.0]hex-2-enyl]-1,2,4-oxadiazol-5-yl]methyl]purin-6-one]	–	–	IC50 (compounds incubated 10 minutes at room temperature before cinnamaldehyde agonist): 16.8 nM; IC50 (compounds incubated 90 minutes at room temperature before cinnamaldehyde agonist): 11 nM
Cn1cnc2ncn(Cc3nc([C@@H]4[C@H]5C=C(c6cccc(-c7cnco7)c6)C[C@H]54)no3)c(=O)c21 [Example Compound 280, 7-methyl-1-[[3-[(1R,5R,6S)-3-(3-oxazol-5-ylphenyl)-6-bicyclo[3.1.0]hex-2-enyl]-1,2,4-oxadiazol-5-yl]methyl]purin-6-one]	46.1	40	–
Cn1cnc2ncn(Cc3nc([C@@H]4[C@H]5C=C(c6ccc(C(F)F)cc6)C[C@H]54)no3)c(=O)c21 [Example Compound 281, 7-methyl-1-[[3-[(1R,5R,6S)-3-[4-(difluoromethyl)phenyl]-6-bicyclo[3.1.0]hex-2-enyl]-1,2,4-oxadiazol-5-yl]methyl]purin-6-one]	67.9	35	–
Cn1cnc2ncn(Cc3nc([C@@H]4[C@H]5C=C(c6cccc(F)c6F)C[C@H]54)no3)c(=O)c21 [Example Compound 282, 7-methyl-1-[[3-[(1R,5R,6S)-3-(2,3-difluorophenyl)-6-bicyclo[3.1.0]hex-2-enyl]-1,2,4-oxadiazol-5-yl]methyl]purin-6-one]	–	–	IC50 (read-out: hTRPA1 IC50 (10 min), compounds incubated 10 minutes at room temperature before cinnamaldehyde agonist, listed as 282): 16.9 nM; IC50 (read-out: hTRPA1 IC50 (90 min), compounds incubated 90 minutes at room temperature before cinnamaldehyde agonist, listed as 282): 3.1 nM

Further lines, with some results ahead:

IC50 [1] [nM]	IC50 [2] [nM]	Structure (SMILES)	also measured
16.6	19	Cn1cnc2ncn(Cc3nc([C@H]4C[C@H](Cc5cccc(Cl)c5)C4)no3)c(=O)c21 [Example Compound 257, 1-[[3-[trans-3-[(3-chlorophenyl)methyl]cyclobutyl]-1,2,4-oxadiazol-5-yl]methyl]-7-methyl-purin-6-one]	–
9.73	4.3	Nc1ccc2c(=O)n(Cc3nc([C@H]4[C@@H]5CN(c6cccc(F)c6)C[C@@H]54)no3)cnc2n1 [Example Compound 261, 7-amino-3-[[3-[(1R,5S)-3-(3-fluorophenyl)-3-azabicyclo[3.1.0]hexan-6-yl]-1,2,4-oxadiazol-5-yl]methyl]pyrido[2,3-d]pyrimidin-4-one]	–
15.8	6.5	Cn1c(Cl)nc2ncn(Cc3nc([C@@H]4[C@H]5C=C(c6ccccc6)C[C@H]54)no3)c(=O)c21 [Example Compound 263, 8-chloro-7-methyl-1-[[3-[(1R,5R,6S)-3-phenyl-6-bicyclo[3.1.0]hex-2-enyl]-1,2,4-oxadiazol-5-yl]methyl]purin-6-one]	–
16.1	12	Cn1c(=O)ccc2ncn(Cc3nc([C@@H]4[C@H]5C=C(c6ccccc6)C[C@H]54)no3)c(=O)c21 [Example Compound 265, 5-methyl-3-[[3-[(1R,5R,6S)-3-phenyl-6-bicyclo[3.1.0]hex-2-enyl]-1,2,4-oxadiazol-5-yl]methyl]pyrido[3,2-d]pyrimidine-3,6-dione]	–
6.96	4.6	Cn1cnc2ncn(Cc3nc([C@H]4[C@@H]5C=C(c6ccc(F)cc6F)C[C@@H]54)no3)c(=O)c21 [Example Compound 269, 7-methyl-1-[[3-[(1S,5S,6R)-3-(2,4-difluorophenyl)-6-bicyclo[3.1.0]hex-2-enyl]-1,2,4-oxadiazol-5-yl]methyl]purin-6-one]	–
13	2.4	Cn1cnc2ncn(Cc3nc([C@H]4[C@@H]5C=C(c6cc(F)cc(F)c6)C[C@@H]54)no3)c(=O)c21 [Example Compound 270, 7-methyl-1-[[3-[(1S,5S,6R)-3-(3,5-difluorophenyl)-6-bicyclo[3.1.0]hex-2-enyl]-1,2,4-oxadiazol-5-yl]methyl]purin-6-one]	–
11.9	6.5	O=c1c2cccc(=O)n2ccn1Cc1nc([C@@H]2[C@H]3C=C(c4ccccc4)C[C@H]32)no1 [Example Compound 275, 2-[[3-[(1R,5R,6S)-3-phenyl-6-bicyclo[3.1.0]hex-2-enyl]-1,2,4-oxadiazol-5-yl]methyl]pyrido[1,2-a]pyrazine-1,6-dione]	–
15	7.4	Cn1cnc2ncn(Cc3nc([C@H]4[C@@H]5CN(c6ccc(Cl)cc6F)C[C@@H]54)no3)c(=O)c21 [Example Compound 276, 7-methyl-1-[[3-[(1S,5R)-3-(4-chloro-2-fluorophenyl)-3-azabicyclo[3.1.0]hexan-6-yl]-1,2,4-oxadiazol-5-yl]methyl]purin-6-one]	–
15.8	3.1	Cn1cnc2ncn(Cc3nc([C@H]4[C@@H]5C=C(c6ccc7ncsc7c6)C[C@@H]54)no3)c(=O)c21 [Example Compound 278, 7-methyl-1-[[3-[(1S,5S,6R)-3-(1,3-benzothiazol-6-yl)-6-bicyclo[3.1.0]hex-2-enyl]-1,2,4-oxadiazol-5-yl]methyl]purin-6-one]	–
11.2	5.6	O=c1c2cccnc2cnn1Cc1nc([C@H]2[C@@H]3CN(c4ccc5ncsc5c4)C[C@@H]32)no1 [Example Compound 279, 6-[[3-[(1R,5S)-3-(1,3-benzothiazol-6-yl)-3-azabicyclo[3.1.0]hexan-6-yl]-1,2,4-oxadiazol-5-yl]methyl]pyrido[2,3-d]pyridazin-5-one]	–
19.6	5.3	Cn1cnc2ncn(Cc3nc([C@@H]4[C@H]5C=C(c6ccc(C#N)c(F)c6)C[C@H]54)no3)c(=O)c21 [Example Compound 283, 2-fluoro-4-[(1R,5R,6S)-6-[5-[(7-methyl-6-oxo-purin-1-yl)methyl]-1,2,4-oxadiazol-3-yl]-3-bicyclo[3.1.0]hex-2-enyl]benzonitrile]	–
